Where no end group is shown, it is not given here.
System: murine B16 melanoma cells
Assay: Anti-tumor effect: tumor size / tumor volume in mice bearing subcutaneous B16 melanoma
Assay type: in vivo, C57BL/6 mice
Parameters: key to Tumor measurement L (length) / Tumor measurement W (width): The sign “—” indicates that tumor does not reach a measurable size
Settings: for Tumor Volume (cm^3) (Mean ± SD): group mean; for PI (TV), percent inhibition of tumor volume: vs vehicle; for Tumor volumes on Day 15: Length × Width × Width/2
Method: The toxic effects of the dosing regimens were also monitored. […] Meanwhile 9H10 was given in two groups via i.p. on Day 3, 6 and 9. […] Tumor volume and body weight were measured every three days, and tumor weights were measured on Day 16 at the end of the study.
As per aseptic tissue culture procedures, one vial of B16 melanoma cells was removed from the liquid nitrogen stock, and placed into a 37° C. water bath. Gentle swirling was conducted until the content of the vial was thawed. Using tissue culture/sterile procedures, the cells were immediately centrifuged with a TD5A-WS centrifuge at 1000 rpm, 20-25° C., 5 min. After centrifugation, the cells were suspended in 0.1 to 0.5 mL normal saline (NS) and subcutaneously injected into 10 mice (0.1 mL/mouse, about 1×10^6 cells). After 7-10 days, when the tumor diameter was approximately 1 cm, the animals were euthanized with CO2 overdose and the tumors excised. The procedure was repeated with 20 mice to generate a sufficient number of B16 melanoma cells with adequate transplantability.
On the day of tumor implantation, approximately 1×10^6 cells in 0.1 mL were subcutaneously injected on the right axillary area of each mouse. The day of tumor implantation was defined as Day 0.
On Day 3, the animals were randomly assigned into nine different weight-matched and tumor-size-matched groups. Dosing was started on Day 3 using the regimen according to Table 2.
From Day 1 to Day 15, mortality and moribundity were checked twice daily, the body weights were recorded once every 3 days, and tumors were measured using a caliper once every 3 days. At the end of the study (Day 16), the animals were euthanized by CO2 asphyxiation, and the tumors were excised and weighed.
Based on the tumor size, the tumor volume (TV) was calculated with the formula: [TV=(Length×Width×Width)/2]. And the percent inhibition (PI) of TV (PITV) was calculated according to the equation below:
PITV(%)=(TV vehicle−TVdrug treated)/TV vehicle×100
Inter-group comparison was performed in terms of tumor volume, tumor weight and body weight, using a student's t test. P values of less than 0.05 were considered to be statistically significant.

Substance: Thymosin Alpha-1 (Ac-SDAAVDTSSEITTKDLKEKKEVVEEAEN; ends and bridges not checked; UniProt P06454 2-29, looked up) [TA-1, 28 amino acid peptide, immunomodulator; test article (SciClone), 6 mg/kg s.c. daily]
- Tumor measurement L (length) (Day 3, animal F1): —
- Tumor measurement W (width) (Day 3, animal F1): —
- Tumor volume (Day 3, animal F1): 0.0000 cm^3
- Tumor measurement L (length) (Day 3, animal F2): —
- Tumor measurement W (width) (Day 3, animal F2): —
- Tumor volume (Day 3, animal F2): 0.0000 cm^3
- Tumor measurement L (length) (Day 3, animal F3): —
- Tumor measurement W (width) (Day 3, animal F3): —
- Tumor volume (Day 3, animal F3): 0.0000 cm^3
- Tumor measurement L (length) (Day 3, animal F4): 0.10 cm
- Tumor measurement W (width) (Day 3, animal F4): 0.10 cm
- Tumor volume (Day 3, animal F4): 0.0005 cm^3
- Tumor measurement L (length) (Day 3, animal F5): —
- Tumor measurement W (width) (Day 3, animal F5): —
- Tumor volume (Day 3, animal F5): 0.0000 cm^3
- Tumor measurement L (length) (Day 3, animal M1): —
- Tumor measurement W (width) (Day 3, animal M1): —
- Tumor volume (Day 3, animal M1): 0.0000 cm^3
- Tumor measurement L (length) (Day 3, animal M2): —
- Tumor measurement W (width) (Day 3, animal M2): —
- Tumor volume (Day 3, animal M2): 0.0000 cm^3
- Tumor measurement L (length) (Day 3, animal M3): —
- Tumor measurement W (width) (Day 3, animal M3): —
- Tumor volume (Day 3, animal M3): 0.0000 cm^3
- Tumor measurement L (length) (Day 3, animal M4): —
- Tumor measurement W (width) (Day 3, animal M4): —
- Tumor volume (Day 3, animal M4): 0.0000 cm^3
- Tumor measurement L (length) (Day 3, animal M5): —
- Tumor measurement W (width) (Day 3, animal M5): —
- Tumor volume (Day 3, animal M5): 0.0000 cm^3
- Tumor Volume (cm^3) (Mean ± SD) (Day 3): 0.000 ± 0.0002 cm^3
- PI (TV), percent inhibition of tumor volume (Day 3): 50.00%
- Tumor measurement L (length) (Day 6, animal F1): —
- Tumor measurement W (width) (Day 6, animal F1): —
- Tumor volume (Day 6, animal F1): 0.0000 cm^3
- Tumor measurement L (length) (Day 6, animal F2): —
- Tumor measurement W (width) (Day 6, animal F2): —
- Tumor volume (Day 6, animal F2): 0.0000 cm^3
- Tumor measurement L (length) (Day 6, animal F3): —
- Tumor measurement W (width) (Day 6, animal F3): —
- Tumor volume (Day 6, animal F3): 0.0000 cm^3
- Tumor measurement L (length) (Day 6, animal F4): —
- Tumor measurement W (width) (Day 6, animal F4): —
- Tumor volume (Day 6, animal F4): 0.0000 cm^3
- Tumor measurement L (length) (Day 6, animal F5): —
- Tumor measurement W (width) (Day 6, animal F5): —
- Tumor volume (Day 6, animal F5): 0.0000 cm^3
- Tumor measurement L (length) (Day 6, animal M1): —
- Tumor measurement W (width) (Day 6, animal M1): —
- Tumor volume (Day 6, animal M1): 0.0000 cm^3
- Tumor measurement L (length) (Day 6, animal M2): —
- Tumor measurement W (width) (Day 6, animal M2): —
- Tumor volume (Day 6, animal M2): 0.0000 cm^3
- Tumor measurement L (length) (Day 6, animal M3): —
- Tumor measurement W (width) (Day 6, animal M3): —
- Tumor volume (Day 6, animal M3): 0.0000 cm^3
- Tumor measurement L (length) (Day 6, animal M4): —
- Tumor measurement W (width) (Day 6, animal M4): —
- Tumor volume (Day 6, animal M4): 0.0000 cm^3
- Tumor measurement L (length) (Day 6, animal M5): —
- Tumor measurement W (width) (Day 6, animal M5): —
- Tumor volume (Day 6, animal M5): 0.0000 cm^3
- Tumor Volume (cm^3) (Mean ± SD) (Day 6): 0.000 ± 0.0000 cm^3
- PI (TV), percent inhibition of tumor volume (Day 6): 100.00%
- Tumor measurement L (length) (Day 9, animal F1): 0.10 cm
- Tumor measurement W (width) (Day 9, animal F1): 0.10 cm
- Tumor volume (Day 9, animal F1): 0.0005 cm^3
- Tumor measurement L (length) (Day 9, animal F2): 0.10 cm
- Tumor measurement W (width) (Day 9, animal F2): 0.10 cm
- Tumor volume (Day 9, animal F2): 0.0005 cm^3
- Tumor measurement L (length) (Day 9, animal F3): 0.10 cm
- Tumor measurement W (width) (Day 9, animal F3): 0.10 cm
- Tumor volume (Day 9, animal F3): 0.0005 cm^3
- Tumor measurement L (length) (Day 9, animal F4): 0.20 cm
- Tumor measurement W (width) (Day 9, animal F4): 0.20 cm
- Tumor volume (Day 9, animal F4): 0.0040 cm^3
- Tumor volume (Day 9, animal F5): 0.0000 cm^3
- Tumor measurement L (length) (Day 9, animal M1): 0.10 cm
- Tumor measurement W (width) (Day 9, animal M1): 0.10 cm
- Tumor volume (Day 9, animal M1): 0.0005 cm^3
- Tumor measurement L (length) (Day 9, animal M2): 0.20 cm
- Tumor measurement W (width) (Day 9, animal M2): 0.20 cm
- Tumor volume (Day 9, animal M2): 0.0040 cm^3
- Tumor measurement L (length) (Day 9, animal M3): 0.50 cm
- Tumor measurement W (width) (Day 9, animal M3): 0.50 cm
- Tumor volume (Day 9, animal M3): 0.0625 cm^3
- Tumor measurement L (length) (Day 9, animal M4): 0.20 cm
- Tumor measurement W (width) (Day 9, animal M4): 0.20 cm
- Tumor volume (Day 9, animal M4): 0.0040 cm^3
- Tumor measurement L (length) (Day 9, animal M5): 0.30 cm
- Tumor measurement W (width) (Day 9, animal M5): 0.30 cm
- Tumor volume (Day 9, animal M5): 0.0135 cm^3
- Tumor Volume (cm^3) (Mean ± SD) (Day 9): 0.009 ± 0.0192 cm^3
- PI (TV), percent inhibition of tumor volume (Day 9): 56.73%
- Tumor volume (Day 12, animal F1): 0.0625 cm^3
- Tumor measurements on Day 12, L (Day 12, animal F1): 0.50 cm
- Tumor measurements on Day 12, W (Day 12, animal F1): 0.50 cm
- Tumor volume (Day 12, animal F2): 0.0625 cm^3
- Tumor measurements on Day 12, L (Day 12, animal F2): 0.50 cm
- Tumor measurements on Day 12, W (Day 12, animal F2): 0.50 cm
- Tumor volume (Day 12, animal F3): 0.0625 cm^3
- Tumor measurements on Day 12, L (Day 12, animal F3): 0.50 cm
- Tumor measurements on Day 12, W (Day 12, animal F3): 0.50 cm
- Tumor volume (Day 12, animal F4): 0.1715 cm^3
- Tumor measurements on Day 12, L (Day 12, animal F4): 0.70 cm
- Tumor measurements on Day 12, W (Day 12, animal F4): 0.70 cm
- Tumor volume (Day 12, animal F5): 0.0005 cm^3
- Tumor measurements on Day 12, L (Day 12, animal F5): 0.10 cm
- Tumor measurements on Day 12, W (Day 12, animal F5): 0.10 cm
- Tumor volume (Day 12, animal M1): 0.0625 cm^3
- Tumor measurements on Day 12, L (Day 12, animal M1): 0.50 cm
- Tumor measurements on Day 12, W (Day 12, animal M1): 0.50 cm
- Tumor volume (Day 12, animal M2): 0.1715 cm^3
- Tumor measurements on Day 12, L (Day 12, animal M2): 0.70 cm
- Tumor measurements on Day 12, W (Day 12, animal M2): 0.70 cm
- Tumor volume (Day 12, animal M3): 0.3645 cm^3
- Tumor measurements on Day 12, L (Day 12, animal M3): 0.90 cm
- Tumor measurements on Day 12, W (Day 12, animal M3): 0.90 cm
- Tumor volume (Day 12, animal M4): 0.0625 cm^3
- Tumor measurements on Day 12, L (Day 12, animal M4): 0.50 cm
- Tumor measurements on Day 12, W (Day 12, animal M4): 0.50 cm
- Tumor volume (Day 12, animal M5): 0.3645 cm^3
- Tumor measurements on Day 12, L (Day 12, animal M5): 0.90 cm
- Tumor measurements on Day 12, W (Day 12, animal M5): 0.90 cm
- Tumor Volume (cm^3) (Mean ± SD) (Day 12): 0.139 ± 0.1301 cm^3
- PI (TV), percent inhibition of tumor volume (Day 12): 59.58%
- Tumor measurements on Day 15, L (Day 15, animal F1): 0.70 cm
- Tumor volumes on Day 15 (Day 15, animal F1): 0.1715 cm^3
- Tumor measurements on Day 15, W (Day 15, animal F1): 0.70 cm
- Tumor measurements on Day 15, L (Day 15, animal F2): 0.70 cm
- Tumor volumes on Day 15 (Day 15, animal F2): 0.1260 cm^3
- Tumor measurements on Day 15, W (Day 15, animal F2): 0.60 cm
- Tumor measurements on Day 15, L (Day 15, animal F3): 0.60 cm
- Tumor volumes on Day 15 (Day 15, animal F3): 0.1080 cm^3
- Tumor measurements on Day 15, W (Day 15, animal F3): 0.60 cm
- Tumor measurements on Day 15, L (Day 15, animal F4): 1.00 cm
- Tumor volumes on Day 15 (Day 15, animal F4): 0.2450 cm^3
- Tumor measurements on Day 15, W (Day 15, animal F4): 0.70 cm
- Tumor measurements on Day 15, L (Day 15, animal F5): 0.30 cm
- Tumor volumes on Day 15 (Day 15, animal F5): 0.0135 cm^3
- Tumor measurements on Day 15, W (Day 15, animal F5): 0.30 cm
- Tumor measurements on Day 15, L (Day 15, animal M1): 0.70 cm
- Tumor volumes on Day 15 (Day 15, animal M1): 0.1715 cm^3
- Tumor measurements on Day 15, W (Day 15, animal M1): 0.70 cm
- Tumor measurements on Day 15, L (Day 15, animal M2): 1.00 cm
- Tumor volumes on Day 15 (Day 15, animal M2): 0.5000 cm^3
- Tumor measurements on Day 15, W (Day 15, animal M2): 1.00 cm
- Tumor measurements on Day 15, L (Day 15, animal M3): 1.00 cm
- Tumor volumes on Day 15 (Day 15, animal M3): 0.5000 cm^3
- Tumor measurements on Day 15, W (Day 15, animal M3): 1.00 cm
- Tumor measurements on Day 15, L (Day 15, animal M4): 1.00 cm
- Tumor volumes on Day 15 (Day 15, animal M4): 0.4050 cm^3
- Tumor measurements on Day 15, W (Day 15, animal M4): 0.90 cm
- Tumor measurements on Day 15, L (Day 15, animal M5): 1.00 cm
- Tumor volumes on Day 15 (Day 15, animal M5): 0.5000 cm^3
- Tumor measurements on Day 15, W (Day 15, animal M5): 1.00 cm
- Tumor Volume (cm^3) (Mean ± SD) (Day 15): 0.274 ± 0.1855 cm^3
- PI (TV), percent inhibition of tumor volume (Day 15): 62.57%
- effect on tumor growth in words (daily dosing Days 3-15): effective against the tumor growth
- reduction of mean tumor volume in comparison to vehicle control (throughout the course of the study, 6 mg/kg s.c. daily): 50-60%
